Assay: in vitro
Conditions: human, hela cells, % viability

Structure (SMILES) | viability at 28.5 h, 10 µM [%]
C[C@]12CN(Cc3cccs3)C[C@H]1C(=O)Nc1ccccc1C(=O)N2 [CBK284705] | 98.2
O=C(Cn1c(=O)n(Cc2ccco2)c2ncccc21)N1CCCC1 [CBK284708] | 88.9
COC(=O)C1(Cc2ccccc2-c2ccncc2)CCOCC1 [CBK284709] | 95.2
CC(C)(C)OC(=O)N1CCCC(c2nc3ccccc3cc2N)C1 (centres unmarked) [CBK284711] | 96.7
O=C(Cn1nc(-c2cc3c(s2)CCC3)oc1=O)N1CCCC1 [CBK284712] | 90.3
CN(C)C(=O)Cn1nc(-c2cc3c(s2)CCC3)oc1=O [CBK284715] | 99
COc1ccc2cnc(C3CCCN(C(=O)C4CC4)C3)cc2c1C (centres unmarked) [CBK284716] | 90.8
O=C(NC1CCN(C(=O)CCn2ccc3ccncc32)CC1)C1CC1 [CBK284718] | 78.3
CCOC(=O)C1CCN(C(=O)CCn2ccc3ccncc32)CC1 [CBK284720] | 84.2
CCCC(=O)N1CCCC([C@@H]2C[C@H](C(F)F)n3nc(C)cc3N2)C1 (some centres unmarked) [CBK284721] | 93.2
Cc1cc2n(n1)[C@@H](C(F)F)C[C@@H](C1CCCN(C(=O)C(C)C)C1)N2 (some centres unmarked) [CBK284722] | 96.1
Cc1cc2n(n1)[C@@H](C(F)F)C[C@@H](C1CCCN(C(=O)C3CC3)C1)N2 (some centres unmarked) [CBK284723] | 98.7
O=C(Cn1ccc2ccnc(-c3cccs3)c21)N1CCOCC1 [CBK284729] | 94.2
CC(C)C(=O)NC1CCN(C(=O)CCn2ccc3ccncc32)CC1 [CBK284730] | 98
CC(C)NC(=O)Cn1ccc2ccnc(-c3cccs3)c21 [CBK284732] | 91.3
O=C(Cn1ccc2ccnc(-c3cccs3)c21)N1CCNCC1 [CBK284733] | 90.9
O=C(Cn1ccc2ccnc(-c3cccs3)c21)NCc1ccccn1 [CBK284735] | 95.9
Cn1cc(C2CCCCCN2S(=O)(=O)c2ccc(F)cc2)cn1 (centres unmarked) [CBK284739] | 91.7
Cn1cc(NC(=O)CCn2c(C(F)F)cc3cccnc32)cn1 [CBK284740] | 90.2
Cc1cnc2[nH]c(C3CC3)c(CN3CC(C)OC(C)C3)c2c1 (centres unmarked) [CBK284741] | 91.8
Cc1cnc2[nH]c(C(C)C)c(CN3CCCOCC3)c2c1 [CBK284742] | 90.7
CCCC(=O)N1CCC(c2nc3ccccn3c2NC(C)(C)C)CC1 [CBK284744] | 81.9
CCS(=O)(=O)N1CCC2(C=Cc3cc(F)ccc3O2)CC1 [CBK284747] | 104

Structure (SMILES) | viability at 28.5 h, 10 µM [%]
CC(C)(C)c1cc(C(=O)N2CCn3cc(C(F)(F)F)nc3C2)[nH]n1 [CBK284748] | 87.7
OC1(Cn2ccc3ncccc32)CCN(Cc2ccccc2F)CC1 [CBK284752] | 93.3
Cc1cnc2[nH]c(C3CCN(C(=O)c4scnc4C)CC3)cc2c1 [CBK284753] | 96.7
Cc1cnc2c(c1)cc(C1CCOCC1)n2CC(=O)N(C)C [CBK284754] | 102
Cc1cnc2c(c1)cc(C1CCOCC1)n2CC(=O)NC1CCCC1 [CBK284755] | 103
Cc1occc1-c1nn(C2CCNCC2)c(=O)o1 [CBK284757] | 98.5
Cc1cnc2[nH]c(C(C)C)c(CN(C)C)c2c1 [CBK284758] | 100
O=C(CCn1ccc2ccncc21)NCCc1c[nH]c2ccccc12 [CBK284760] | 99
CC(C)NC(=O)[C@@H]1CN(C)C[C@]12CCc1ccccc1C2=O [CBK284764] | 93.8
Cc1cnc2[nH]c(C(F)(F)F)c(CN3CCOCC3)c2c1 [CBK284766] | 85.7
Cc1cnc2[nH]c(C(F)(F)F)c(CN3CCSCC3)c2c1 [CBK284767] | 90
CC(=O)N1CCN(Cc2c(C(F)(F)F)[nH]c3ncc(C)cc23)CC1 [CBK284768] | 93.1
O=c1[nH]cc(-c2ccccc2)cc1CNc1ccccc1-n1ccnc1 [CBK284769] | 101
O=c1[nH]cc(-c2ccccc2)cc1CNCC1Cc2ccccc2O1 (centres unmarked) [CBK284772] | 92.3
COCCC(=O)NC(Cc1ccsc1)c1nc(C)c(C)s1 (centres unmarked) [CBK284774] | 84.7
Cc1nc(C(Cc2ccsc2)NC(=O)C(C)(C)N)sc1C (centres unmarked) [CBK284775] | 93
Cc1nc(C(Cc2ccsc2)NC(=O)c2cc[nH]n2)sc1C (centres unmarked) [CBK284776] | 85.9
Cc1nc(C(Cc2ccsc2)NC(=O)Cn2ccnc2)sc1C (centres unmarked) [CBK284777] | 102
Cc1nc(C(Cc2ccsc2)NC(=O)c2ccnn2C)sc1C (centres unmarked) [CBK284778] | 87.6
Cc1nc(C(Cc2ccsc2)NC(=O)c2cnn(C)c2)sc1C (centres unmarked) [CBK284779] | 104
OC1(Cn2ccc3ncccc32)CCN(Cc2cccs2)CC1 [CBK284783] | 88.3
CC(C)NC(=O)C1(Cc2ccccc2-c2ccncc2)CCOCC1 [CBK284786] | 94.1
CC(C)(C)Nc1c(C2CCN(C(=O)C3CC3)CC2)nc2ccccn12 [CBK284787] | 104

Structure (SMILES) | viability at 28.5 h, 10 µM [%]
C[C@]12CN(C3CCSC3)C[C@H]1C(=O)Nc1ccccc1C(=O)N2 (some centres unmarked) [CBK284788] | 90.8
OC1(Cn2cnc3ccccc32)CCN(CCc2ccccc2)CC1 [CBK284789] | 100
O=C(C1CC1)N1C[C@@H](c2ccccc2)[C@H](c2cc(C(F)F)[nH]n2)C1 [CBK284791] | 91.1
CN1C[C@@H](C(=O)N(C)C)[C@@]2(CCc3ccccc3C(=O)N2)C1 [CBK284792] | 102
CN1C[C@@H](C(=O)NC(C)(C)C)[C@@]2(CCc3ccccc3C(=O)N2)C1 [CBK284796] | 99
O=C1NC=CCC12CCCN(S(=O)(=O)c1ccc(F)cc1)C2 (centres unmarked) [CBK284797] | 93.5
O=C1NC2(CCCN(C(=O)c3cccs3)C2)Oc2ccccc21 (centres unmarked) [CBK284799] | 93
CN(C)CC(=O)NC(Cc1ccsc1)c1nccs1 (centres unmarked) [CBK284801] | 91.4
O=C(NC(Cc1cccs1)c1nccs1)C1CSCN1 (centres unmarked) [CBK284805] | 91.4
CC(NC(=O)c1ccc(-n2ccnc2)c(-n2cccc2)c1)c1ccco1 (centres unmarked) [CBK284808] | 98
O=C(Cn1cccc2cc(-c3ccc(F)cc3)nc1-2)N1CCOCC1 [CBK284809] | 87.5
O=C(c1ccc(-n2ccnc2)c(-n2cccc2)c1)N1CCCCCC1 [CBK284813] | 87.4
O=c1c2ccccc2nc2n1CCN(Cc1cccs1)CC2 [CBK284815] | 92.3
O=c1c2ccccc2nc2n1CCN(Cc1ccc(F)c(F)c1)CC2 [CBK284816] | 96.6
O=c1c2ccccc2nc2n1CCN(Cc1c(F)cccc1F)CC2 [CBK284817] | 88.7
O=c1c2ccccc2nc2n1CCN(Cc1cc(F)ccc1F)CC2 [CBK284818] | 99.1
CC(=O)NC1(c2ccccc2)CCN(CC(O)c2ccccc2)CC1 (centres unmarked) [CBK284819] | 107
CN(C)CCNC(=O)Cn1c(-c2ccc(F)cc2)cc2cccnc21 [CBK284820] | 97.7
Cc1ccc(CN2CCC3(CCCNC3=O)CC2)cc1 [CBK284822] | 90.6
COc1cccc(CN2CCC3(CCCNC3=O)CC2)c1 [CBK284824] | 96.6
O=C1NCCCC12CCN(Cc1ccc3ncccc3c1)CC2 [CBK284825] | 91.4
COc1ccc(F)c(CN2CCC3(CCCNC3=O)CC2)c1 [CBK284827] | 102
O=C1CCN(Cc2ccccc2)CCN1C(=O)C1CCCC1 [CBK284829] | 85.7

Structure (SMILES) | viability at 28.5 h, 10 µM [%]
Cc1ccc2c(c1)c(=O)cc(C(F)(F)F)n2CCNC(=O)C1CC1 [CBK284831] | 93.1
CC1CCCCN1C(=O)c1ccc(-n2ccnc2)c(-n2cccc2)c1 (centres unmarked) [CBK284832] | 95.5
Cc1ccc2c(c1)CN(C(=O)C1CC1C)CC1(CCN(C)CC1)O2 (centres unmarked) [CBK284833] | 94.5
Cc1ccc2c(c1)C(=O)NCC1(CCN(C(=O)C3CC3)CC1)O2 [CBK284835] | 108
C=Cn1ncc(CN2CCCC(O)(c3ccc(F)cc3)CC2)c1C (centres unmarked) [CBK284837] | 89.3
CCn1cncc1CN1CCCC(O)(c2ccc(F)cc2)CC1 (centres unmarked) [CBK284838] | 90.6
O=C(C1CCOCC1)N1CCCC[C@H]2CN(Cc3ccccc3)C[C@H]21 [CBK284839] | 86.9
Cc1cc(C2CCCCCN2C(=O)c2ccccc2F)on1 (centres unmarked) [CBK284842] | 94.5
Cc1cc(C2CCCCCN2C(=O)c2nn(C)cc2Cl)on1 (centres unmarked) [CBK284843] | 105
Cc1cc(C2CCCCCN2Cc2c(C)nn(C)c2C)no1 (centres unmarked) [CBK284846] | 87.6
COc1ccccc1CCC(=O)N1CCCc2c(cnn2C)C1 [CBK284847] | 80
CCOC(=O)[C@H]1CC[C@]2(CC1)CN(C)C(=O)c1ccccc1O2 [CBK284848] | 101
CCOC(=O)[C@H]1CC[C@]2(CC1)CNC(=O)c1cc(Cl)ccc1O2 [CBK284849] | 89.9
Cc1nn(C)c(C)c1CCC(=O)N1CCc2ncc(Cl)cc2C1 [CBK284851] | 114
Cc1ncccc1C(=O)N1CCC(c2cc3ccccc3cn2)CC1 [CBK284854] | 113
CCc1n[nH]c(C(=O)N2CCc3ncc(Cl)cc3C2)c1C [CBK284856] | 92.8
O=C1NCC2(CCCN(Cc3ccc(F)cc3)C2)Oc2ccccc21 (centres unmarked) [CBK284857] | 92.7
CCOC(=O)C1C2CCC3(CC(=O)c4cc(Cl)ccc4O3)C21 (centres unmarked) [CBK284858] | 107
O=c1c2cc(F)ccc2nc2n1CCN(Cc1cccs1)CC2 [CBK284859] | 110
O=c1c2cc(F)ccc2nc2n1CCN(Cc1ccsc1)CC2 [CBK284860] | 106
O=C(Cn1c(-c2ccc(F)cc2)cc2cccnc21)NC1CC1 [CBK284861] | 103
O=C(CCn1c(C(F)(F)F)cc2cccnc21)NCc1cccnc1 [CBK284865] | 106
Cn1cc(NC(=O)CCn2c(C(F)(F)F)cc3cccnc32)cn1 [CBK284866] | 92.5

Source: PMC12040169 (PLOS Biology, 2025)
